Assay results taken from patent US11638713B2, “Patentiflorin A analogs as antiviral agents” (priority 2019, dated 2023).

Assays:
HIV = assay: microbe, parasite or virus in culture; assay type: cell-based; details: for EC50: Human immunodeficiency virus 1, A549
H5N1 virus = assay: microbe, parasite or virus in culture; assay type: cell-based, H5N1 influenza virus; details: for inhibition at 0.0125 µg/mL: H5N1, A549, 12.5 ng/mL; for inhibition at 0.05 µg/mL: H5N1, A549, 50 ng/mL; for EC50: H5N1, A549, read-out: EC50 against H5N1 virus; for inhibition at 0.25 µg/mL: H5N1, A549, 250 ng/mL; for inhibition at 0.1 µg/mL: H5N1, A549, 100 ng/mL; for inhibition at 0.5 µg/mL: H5N1, A549, 500 ng/mL
SARS-CoV-2 = assay: microbe, parasite or virus in culture; assay type: cell-based; details: Severe acute respiratory syndrome coronavirus 2, HepG2, read-out: EC50 against SARS-CoV-2
in vitro = details: human
EBOV (Ebola virus) = assay: microbe, parasite or virus in culture; assay type: cell-based; details: Zaire ebolavirus; for EC50: A549, read-out: EC50 against EBOV; for inhibition at 0.0125 µg/mL: 12.5 ng/mL; for inhibition at 0.05 µg/mL: 50 ng/mL; for inhibition at 0.1 µg/mL: 100 ng/mL; for inhibition at 0.5 µg/mL: 500 ng/mL
[1] = test system: VSV (vesicular stomatitis virus); assay: microbe, parasite or virus in culture; assay type: cell-based; details: for inhibition at 0.0125 µg/mL: A549, 12.5 ng/mL; for inhibition at 0.05 µg/mL: A549, 50 ng/mL; for EC50: A549, read-out: EC50 against VSV; for inhibition at 0.1 µg/mL: A549, 100 ng/mL; for inhibition at 0.5 µg/mL: A549, 500 ng/mL
A549 cells = assay: cells; details: Homo sapiens, A549, read-out: % Inhibition against A549 cells
[2] = Influenza A virus, read-out: % Inhibition against H5N1 virus
[3] = A549, read-out: % Inhibition against EBOV
[4] = read-out: % Inhibition against VSV
[5] = CC50 against the host cell line A549

| SMILES | EC50 (SARS-CoV-2) | CC50 (in vitro; CC50 (nM)) | inhibition at 0.0125 µg/mL (H5N1 virus; [2]) | inhibition at 0.05 µg/mL (H5N1 virus; [2]) | EC50 (H5N1 virus; Influenza A virus) | EC50 (EBOV (Ebola virus)) | inhibition at 0.0125 µg/mL (EBOV (Ebola virus); [3]) | inhibition at 0.05 µg/mL (EBOV (Ebola virus); [3]) | inhibition at 0.0125 µg/mL [1, 4] | inhibition at 0.05 µg/mL [1, 4] | EC50 [1] | inhibition at 0.0125 µg/mL (A549 cells) | inhibition at 0.05 µg/mL (A549 cells) | CC50 (in vitro; [5]) | also measured |
| --- | --- | --- | --- | --- | --- | --- | --- | --- | --- | --- | --- | --- | --- | --- | --- |
| COc1cc2c(OC3O[C@H](C)[C@H](O)[C@H](O)[C@H]3O)c3c(c(-c4ccc5c(c4)OCO5)c2cc1OC)C(=O)OC3 (stereo partly drawn) [Compound 26e, 7-O-β-D-fucopyranosyldiphyllin] | 30.4 nM | > 9500 nM |  |  |  |  |  |  |  |  |  |  |  |  | anti-HIV activity (inhibition) (HIV; at 9496.9 nM): no inhibition; inhibition at 1 µg/mL (H5N1 virus; Influenza A virus, H5N1, A549, 1000 ng/mL, read-out: % Inhibition against H5N1 virus): 48.5%; inhibition at 5 µg/mL (H5N1 virus; Influenza A virus, H5N1, A549, 5000 ng/mL, read-out: % Inhibition against H5N1 virus): 88.9% |
| C=CCOC(=O)O[C@@H]1COC(Oc2c3c(c(-c4ccc5c(c4)OCO5)c4cc(OC)c(OC)cc24)C(=O)OC3)[C@H](O)[C@H]1OC(C)=O (stereo partly drawn) [Compound 28ab1, 4″-O-allyl oxycarbonyl-3″-acetyl-7-O-β-D-xylosyldiphyllin] | 26.3 nM | 513 nM | 91.8% | 86% | 5.05 nM | 18.9 nM | 81% | 82.4% | 85.9% | 83.5% | 3.78 nM | 35.5% | 40.9% | 190 nM |  |
| COc1cc2c(OC3O[C@H](C)[C@@H](O)[C@H](OC(=O)c4ccc(N(C)C)cc4)[C@H]3O)c3c(c(-c4ccc5c(c4)OCO5)c2cc1OC)C(=O)OC3 (stereo partly drawn) [Compound 31e, 3″-O-p-dimethylaminobenzoyl-7-O-β-D-patentiflorin A] |  | 17.7 nM | 98.1% | 97.9% | 0.74 nM | 1.13 nM | 77.5% | 86.5% | 77.4% | 86.3% | 2.41 nM | 53.1% | 66.8% | 17.7 nM | EC50 (HIV): 2.41 nM; % Inhibition against H5N1 virus (H5N1 virus; 12.5 ng/mL): 95.4%; % Inhibition against H5N1 virus (H5N1 virus; 50 ng/mL): 96.5%; inhibition at 0.25 µg/mL (H5N1 virus; [2]): 98.4% |
| COc1cc2c(OC3O[C@H](C)[C@@H](O)[C@H](OC(=O)CC#N)[C@H]3O)c3c(c(-c4ccc5c(c4)OCO5)c2cc1OC)C(=O)OC3 (stereo partly drawn) [Compound 31j, 3″-O-cyanoacetyl-7-O-β-D-patentiflorin A] | 10.3 nM | 6.68 nM | 97.5% | 87.6% | 0.84 nM | 0.84 nM | 93.9% | 96.6% | 98.4% | 99.9% | 0.91 nM | 77% | 93.8% | 6.68 nM | EC50 (HIV): 0.91 nM; % Inhibition against H5N1 virus (H5N1 virus; 50 ng/mL): 98.2%; inhibition at 0.25 µg/mL (H5N1 virus; [2]): 97.9% |
| COc1cc2c(OC3O[C@H](CO)[C@H]4OC(C)(C)O[C@@H]4[C@H]3O)c3c(c(-c4ccc5c(c4)OCO5)c2cc1OC)C(=O)OC3 (stereo partly drawn) [Compound 32a, 3″, 4″-Acetonide-4-O-β-D-glucopyranosyldiphyllin] | 2.95 nM | 52.7 nM |  |  | 0.63 nM | 1.2 nM |  |  |  |  | 18.1 nM |  |  | 61.6 nM |  |
| COc1cc2c(OC3O[C@H](CO)[C@@H]4OC(C)(C)O[C@@H]4[C@H]3O)c3c(c(-c4ccc5c(c4)OCO5)c2cc1OC)C(=O)OC3 (stereo partly drawn) [Compound 32b, 3″, 4″-Acetonide-4-O-β-D-galactopyranosyldiphyllin] | 3.01 nM | 52.7 nM |  | 88.1% | 0.77 nM | 0.85 nM |  | 92.7% |  | 99.6% | 3.15 nM |  | 76% | 30.7 nM | inhibition at 0.01 µg/mL (H5N1 virus; Influenza A virus, H5N1, A549, 10 ng/mL, read-out: % Inhibition against H5N1 virus): 91.7%; inhibition at 0.01 µg/mL (EBOV (Ebola virus); A549, 10 ng/mL, read-out: % Inhibition against EBOV): 86.4%; inhibition at 0.01 µg/mL ([1]; A549, 10 ng/mL, read-out: % Inhibition against VSV): 90.9%; inhibition at 0.01 µg/mL (A549 cells): 40.5% |
| COc1cc2c(OC3O[C@@H]4COC(C)(C)O[C@@H]4[C@H](O)[C@H]3O)c3c(c(-c4ccc5c(c4)OCO5)c2cc1OC)C(=O)OC3 (stereo partly drawn) [Compound 32c, 4″,6″-Acetonide-4-O-β-D-galactopyranosyldiphyllin] | 50.8 nM | 52.7 nM |  |  | 5.2 nM | 20.3 nM |  |  |  |  | 124 nM |  |  | 1040 nM | inhibition at 0.1 µg/mL (H5N1 virus; [2]): 65.1%; inhibition at 0.5 µg/mL (H5N1 virus; [2]): 88.1%; inhibition at 0.1 µg/mL (EBOV (Ebola virus); [3]): 85.5%; inhibition at 0.5 µg/mL (EBOV (Ebola virus); [3]): 88.2%; inhibition at 0.1 µg/mL [1, 4]: 48.9%; inhibition at 0.5 µg/mL [1, 4]: 88.1%; inhibition at 0.1 µg/mL (A549 cells): 2.9%; inhibition at 0.5 µg/mL (A549 cells): 39.7% |
| COc1cc2c(OC3O[C@H](CO)[C@H](O)[C@@H]4OC(C)(C)O[C@@H]34)c3c(c(-c4ccc5c(c4)OCO5)c2cc1OC)C(=O)OC3 (stereo partly drawn) [Compound 32d, 2″,3″-Acetonide-4-O-β-D-galactopyranosyldiphyllin] | 80.4 nM | 52.7 nM |  |  | 200 nM | 396 nM |  |  |  |  | 286 nM |  |  | 1350 nM | inhibition at 0.1 µg/mL (H5N1 virus; [2]): 19.3%; inhibition at 0.5 µg/mL (H5N1 virus; [2]): 83.5%; inhibition at 0.1 µg/mL (EBOV (Ebola virus); [3]): 65.5%; inhibition at 0.5 µg/mL (EBOV (Ebola virus); [3]): 82.7%; inhibition at 0.1 µg/mL [1, 4]: 100%; inhibition at 0.5 µg/mL [1, 4]: 71.7%; inhibition at 0.1 µg/mL (A549 cells): -2%; inhibition at 0.5 µg/mL (A549 cells): 24.3% |
